IC50, inhibition in vivo and microsomal CLint data for 6 compounds are collected here from ChEMBL document CHEMBL6182900, “Discovery of potent focal adhesion kinase (FAK) inhibitor A8 with enhanced antitumor activity” (Eur J Med Chem, 2025).

Data set [1] has as its target Focal adhesion kinase 1 (Homo sapiens, UniProt Q05397). The data set is described as follows: Inhibition of FAK (unknown origin) by HTRF assay.
Data set [2] addresses Cytochrome P450 2C19 (Homo sapiens, UniProt P33261). As to the kind of experiment: Inhibition of CYP2C19 in human liver microsomes in presence of NADPH by LC-MS/MS analysis. Type of data set: ADME, Microsome. For orientation: Microsomes from liver hold many membrane-bound enzymes, among them those of drug oxidation.
Data set [3] deals with Cytochrome P450 2C9 (Homo sapiens, UniProt P11712). The data set is described as follows: Inhibition of CYP2C9 in human liver microsomes in presence of NADPH by LC-MS/MS analysis. Type of data set: ADME, Microsome.
Data set [4] deals with T1, Cytochrome P450 1A2 (Homo sapiens, UniProt P05177).
T1 sequence (P05177 whole entry): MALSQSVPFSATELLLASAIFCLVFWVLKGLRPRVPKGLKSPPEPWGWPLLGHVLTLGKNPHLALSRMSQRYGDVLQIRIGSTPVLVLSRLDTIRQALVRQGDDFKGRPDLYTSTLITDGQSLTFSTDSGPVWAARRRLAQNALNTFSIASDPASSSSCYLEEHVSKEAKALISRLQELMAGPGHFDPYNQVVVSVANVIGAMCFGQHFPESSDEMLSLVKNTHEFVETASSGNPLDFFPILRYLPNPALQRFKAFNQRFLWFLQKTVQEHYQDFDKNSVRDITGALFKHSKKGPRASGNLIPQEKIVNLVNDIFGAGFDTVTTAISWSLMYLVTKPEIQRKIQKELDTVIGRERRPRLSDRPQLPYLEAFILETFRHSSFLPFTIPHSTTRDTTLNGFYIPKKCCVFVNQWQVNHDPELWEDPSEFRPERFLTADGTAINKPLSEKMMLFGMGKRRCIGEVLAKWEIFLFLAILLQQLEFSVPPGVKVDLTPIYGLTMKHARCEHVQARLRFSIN
The data set is described as follows: Inhibition of CYP1A2 in human liver microsomes in presence of NADPH by LC-MS/MS analysis. Type of data set: ADME, Microsome.

Data set [5] deals with Cytochrome P450 3A4 (Homo sapiens, UniProt P08684). The data set is described as follows: Inhibition of CYP3A4 in human liver microsomes in presence of NADPH by LC-MS/MS analysis. Type of data set: ADME, Microsome.
In data set [6] the target is Cytochrome P450 2D6 (Homo sapiens, UniProt P10635). As to the kind of experiment: Inhibition of CYP2D6 in human liver microsomes in presence of NADPH by LC-MS/MS analysis. The class given is ADME, Microsome.
Data set [7] deals with SK-OV-3. As to the kind of experiment: Antitumor activity against human SK-OV-3 cells xenografted in mouse model assessed as tumor growth inhibition at 25 mg/kg co-administered with paclitaxel as twice daily dose for 5 days and measured after 2 days break relative to control. Conditions: SK-OV-3, 168 h, read-out: TGI.
Data set [8] concerns A549. The data set is described as follows: Antitumor activity against human A549 cells xenografted in mouse model assessed as tumor growth inhibition at 50 mg/kg, po administered for 5 days and measured after 2 days relative to control. Conditions: 168 h, read-out: TGI. (In general: A xenograft is tissue or cells of one species grown in another, often human tumour cells in immunodeficient mice.)

In data set [9] the test system is SK-OV-3. As to the kind of experiment: Antitumor activity against human SK-OV-3 cells xenografted in mouse model assessed as tumor growth inhibition at 25 mg/kg administered twice daily for 5 days and measured after 2 days break relative to control. To be noted: SK-OV-3, 168 h, time 7 day, read-out: TGI. The class given is functional.
Data set [10] can be described thus: in vitro. Conditions: human, liver microsomes.
Description: Metabolic stability in human liver microsomes assessed as intrinsic clearance preincubated for 5 mins followed by NADPH addition and measured after 60 mins by LC-MS/MS analysis
In data set [11] the test system is SK-OV-3. As to the kind of experiment: Antitumor activity against human SK-OV-3 cells xenografted in mouse model assessed as tumor growth inhibition at 4 mg/kg, ip administered as weekly dose relative to control. Type of data set: functional. Conditions: read-out: TGI.

pIC50: −log10 of the molar value.

What is called pIC50 is the negative decadic logarithm of the IC50, by convention in mol/L. The microsomal CLint is a measure of how fast metabolising enzymes remove a compound, apart from limits set by blood flow. Low values mean greater metabolic stability, high ones faster metabolism.

Chain of Focal adhesion kinase 1 (Q05397 whole entry): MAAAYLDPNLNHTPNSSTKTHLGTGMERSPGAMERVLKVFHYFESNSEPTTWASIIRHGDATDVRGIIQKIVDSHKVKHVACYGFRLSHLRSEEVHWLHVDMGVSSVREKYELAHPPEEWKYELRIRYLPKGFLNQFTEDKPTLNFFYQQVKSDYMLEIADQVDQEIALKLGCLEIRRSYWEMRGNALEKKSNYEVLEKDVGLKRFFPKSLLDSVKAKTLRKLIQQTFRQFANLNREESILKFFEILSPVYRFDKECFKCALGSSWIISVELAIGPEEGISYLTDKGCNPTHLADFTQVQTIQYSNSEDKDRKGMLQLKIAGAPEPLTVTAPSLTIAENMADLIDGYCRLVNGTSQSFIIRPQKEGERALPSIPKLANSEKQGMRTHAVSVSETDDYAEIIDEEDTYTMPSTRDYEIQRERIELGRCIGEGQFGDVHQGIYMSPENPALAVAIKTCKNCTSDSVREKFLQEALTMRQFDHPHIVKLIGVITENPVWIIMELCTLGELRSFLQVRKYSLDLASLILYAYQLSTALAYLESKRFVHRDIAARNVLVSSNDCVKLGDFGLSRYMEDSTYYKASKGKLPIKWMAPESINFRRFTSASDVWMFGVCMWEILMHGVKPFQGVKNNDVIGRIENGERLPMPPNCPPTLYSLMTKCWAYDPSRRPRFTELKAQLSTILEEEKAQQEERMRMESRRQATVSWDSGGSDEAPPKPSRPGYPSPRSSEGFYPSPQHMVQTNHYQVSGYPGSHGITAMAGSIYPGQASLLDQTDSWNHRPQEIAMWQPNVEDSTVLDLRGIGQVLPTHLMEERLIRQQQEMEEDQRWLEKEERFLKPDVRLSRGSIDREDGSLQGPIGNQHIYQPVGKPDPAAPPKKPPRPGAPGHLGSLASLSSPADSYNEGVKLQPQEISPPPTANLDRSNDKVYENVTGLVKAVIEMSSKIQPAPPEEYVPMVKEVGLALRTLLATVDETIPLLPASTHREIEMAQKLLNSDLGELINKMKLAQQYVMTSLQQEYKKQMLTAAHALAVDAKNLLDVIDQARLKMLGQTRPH
Chain of Cytochrome P450 2D6 (P10635 whole entry): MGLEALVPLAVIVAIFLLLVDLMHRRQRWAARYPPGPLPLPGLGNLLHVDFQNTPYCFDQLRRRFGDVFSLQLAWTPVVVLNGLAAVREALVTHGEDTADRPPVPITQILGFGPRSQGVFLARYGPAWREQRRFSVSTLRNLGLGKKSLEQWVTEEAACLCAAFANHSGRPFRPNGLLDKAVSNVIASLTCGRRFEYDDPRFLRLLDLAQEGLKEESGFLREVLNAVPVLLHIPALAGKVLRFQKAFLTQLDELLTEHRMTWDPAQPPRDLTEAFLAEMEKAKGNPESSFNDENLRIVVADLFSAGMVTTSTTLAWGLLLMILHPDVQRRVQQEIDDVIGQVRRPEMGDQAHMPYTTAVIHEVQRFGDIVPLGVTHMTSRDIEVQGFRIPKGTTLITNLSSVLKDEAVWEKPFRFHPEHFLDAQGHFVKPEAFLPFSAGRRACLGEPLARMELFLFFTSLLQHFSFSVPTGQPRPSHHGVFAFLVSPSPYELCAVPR
Chain of Cytochrome P450 3A4 (P08684 whole entry): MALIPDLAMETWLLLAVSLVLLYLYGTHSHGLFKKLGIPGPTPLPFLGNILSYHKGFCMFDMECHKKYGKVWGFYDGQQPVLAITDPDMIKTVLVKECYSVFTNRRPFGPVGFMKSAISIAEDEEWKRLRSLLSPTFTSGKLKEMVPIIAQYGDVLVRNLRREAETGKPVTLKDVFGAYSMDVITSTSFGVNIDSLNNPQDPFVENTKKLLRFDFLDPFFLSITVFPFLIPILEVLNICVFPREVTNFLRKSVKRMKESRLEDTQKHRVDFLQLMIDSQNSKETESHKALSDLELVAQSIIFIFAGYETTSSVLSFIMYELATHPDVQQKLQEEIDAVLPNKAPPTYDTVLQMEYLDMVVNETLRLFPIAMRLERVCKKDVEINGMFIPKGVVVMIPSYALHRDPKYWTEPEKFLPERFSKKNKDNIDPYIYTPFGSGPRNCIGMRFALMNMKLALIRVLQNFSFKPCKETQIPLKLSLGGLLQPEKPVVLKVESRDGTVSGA
Chain of Cytochrome P450 2C19 (P33261 whole entry): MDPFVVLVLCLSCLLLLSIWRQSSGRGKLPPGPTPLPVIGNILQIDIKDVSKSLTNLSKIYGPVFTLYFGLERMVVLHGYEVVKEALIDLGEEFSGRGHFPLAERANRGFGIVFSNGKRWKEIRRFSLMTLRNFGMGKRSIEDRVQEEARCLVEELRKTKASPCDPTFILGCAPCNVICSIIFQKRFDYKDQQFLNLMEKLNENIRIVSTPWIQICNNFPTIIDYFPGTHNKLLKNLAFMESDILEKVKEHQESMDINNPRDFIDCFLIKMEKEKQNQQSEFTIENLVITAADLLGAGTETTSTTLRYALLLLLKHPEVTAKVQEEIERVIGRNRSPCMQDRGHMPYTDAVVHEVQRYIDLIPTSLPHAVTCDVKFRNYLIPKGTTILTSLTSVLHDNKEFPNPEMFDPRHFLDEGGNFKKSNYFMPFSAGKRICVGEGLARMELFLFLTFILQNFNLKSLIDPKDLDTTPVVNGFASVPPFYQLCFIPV
Chain of Cytochrome P450 2C9 (P11712 whole entry): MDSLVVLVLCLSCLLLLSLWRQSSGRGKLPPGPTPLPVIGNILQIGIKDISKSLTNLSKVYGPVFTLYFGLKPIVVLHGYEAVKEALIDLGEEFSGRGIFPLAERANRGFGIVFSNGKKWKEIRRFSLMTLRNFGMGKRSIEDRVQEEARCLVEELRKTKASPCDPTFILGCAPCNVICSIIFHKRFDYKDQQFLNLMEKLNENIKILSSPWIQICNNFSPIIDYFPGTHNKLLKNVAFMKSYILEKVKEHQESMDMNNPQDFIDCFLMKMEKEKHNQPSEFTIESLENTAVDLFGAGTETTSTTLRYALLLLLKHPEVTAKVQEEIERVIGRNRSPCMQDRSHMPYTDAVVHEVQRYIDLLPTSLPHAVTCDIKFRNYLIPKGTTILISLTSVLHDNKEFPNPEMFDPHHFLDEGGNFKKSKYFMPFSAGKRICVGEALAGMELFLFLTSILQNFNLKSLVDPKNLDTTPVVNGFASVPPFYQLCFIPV

With `CC(=O)Nc1ccc(Nc2nc(Nc3ccc(NC(=O)CCNC(=O)c4ccc(F)nc4)cc3)ncc2Br)c(NC(C)=O)c1`, the pIC50 in data set [1] was 7.95.
Turning to `CNC(=O)c1ccccc1Nc1nc(Nc2ccc(OCCF)cc2)ncc1Br`, the pIC50 was 4.44 in data set [2]; 4.65 in [3]; 4.58 in [4]; < 4.30 in data set [5]; < 4.30 in [6].
Regarding `CNC(=O)c1ccc(Nc2ncc(C(F)(F)F)c(NCc3nccnc3N(C)S(C)(=O)=O)n2)cc1` [DEFACTINIB], the values for the inhibition in vivo at 25 mg/kg in data set [7] and in data set [9] were 74.7% and 53.9%, respectively. In addition, in data set [8], the inhibition in vivo at 50 mg/kg stood at 40.7%.
Turning to `O=C(O)Cc1ccccc1Nc1c(Cl)cccc1Cl` [DICLOFENAC], in data set [10], the intrinsic metabolic clearance (microsomal CLint) at 1 h worked out at 232 µL/min/mg.
In the case of `C#Cc1cccc(Nc2ncnc3cc(OCCOC)c(OCCOC)cc23)c1` [ERLOTINIB], the inhibition in vivo at 50 mg/kg in data set [8] stood at 47.4%.
Take `CC(=O)O[C@H]1C(=O)[C@@]2(C)[C@H]([C@H](OC(=O)c3ccccc3)[C@]3(O)C[C@H](OC(=O)[C@H](O)[C@@H](NC(=O)c4ccccc4)c4ccccc4)C(C)=C1C3(C)C)[C@]1(OC(C)=O)CO[C@@H]1C[C@@H]2O` [PACLITAXEL]: in [11], the inhibition in vivo at 4 mg/kg came to 55.3%.
